Here are results for 1 molecule from article PMC6934184, “Selective DNA-PKcs inhibition extends the therapeutic index of localized radiotherapy and chemotherapy” (The Journal of Clinical Investigation, 2019).

For the assay, the target named is T1, EGFR (ErbB1) T790M L858R (Homo sapiens, UniProt P00533, L858R/T790M).
T1 construct: purchased Thermo Fisher Scientific (Life Technologies) SelectScreen
In words: SelectScreen Z'LYTE. The format is biochemical. The gist of the method: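 Percent values come from Thermo SelectScreen profiling of NU5455, combining activity and binding assays. CSF1R was run in Z'LYTE format at Km app ATP, and CAMK1 in Adapta format with ATP listed at 10.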

T1 sequence (P00533 25-1210 T790M/L858R): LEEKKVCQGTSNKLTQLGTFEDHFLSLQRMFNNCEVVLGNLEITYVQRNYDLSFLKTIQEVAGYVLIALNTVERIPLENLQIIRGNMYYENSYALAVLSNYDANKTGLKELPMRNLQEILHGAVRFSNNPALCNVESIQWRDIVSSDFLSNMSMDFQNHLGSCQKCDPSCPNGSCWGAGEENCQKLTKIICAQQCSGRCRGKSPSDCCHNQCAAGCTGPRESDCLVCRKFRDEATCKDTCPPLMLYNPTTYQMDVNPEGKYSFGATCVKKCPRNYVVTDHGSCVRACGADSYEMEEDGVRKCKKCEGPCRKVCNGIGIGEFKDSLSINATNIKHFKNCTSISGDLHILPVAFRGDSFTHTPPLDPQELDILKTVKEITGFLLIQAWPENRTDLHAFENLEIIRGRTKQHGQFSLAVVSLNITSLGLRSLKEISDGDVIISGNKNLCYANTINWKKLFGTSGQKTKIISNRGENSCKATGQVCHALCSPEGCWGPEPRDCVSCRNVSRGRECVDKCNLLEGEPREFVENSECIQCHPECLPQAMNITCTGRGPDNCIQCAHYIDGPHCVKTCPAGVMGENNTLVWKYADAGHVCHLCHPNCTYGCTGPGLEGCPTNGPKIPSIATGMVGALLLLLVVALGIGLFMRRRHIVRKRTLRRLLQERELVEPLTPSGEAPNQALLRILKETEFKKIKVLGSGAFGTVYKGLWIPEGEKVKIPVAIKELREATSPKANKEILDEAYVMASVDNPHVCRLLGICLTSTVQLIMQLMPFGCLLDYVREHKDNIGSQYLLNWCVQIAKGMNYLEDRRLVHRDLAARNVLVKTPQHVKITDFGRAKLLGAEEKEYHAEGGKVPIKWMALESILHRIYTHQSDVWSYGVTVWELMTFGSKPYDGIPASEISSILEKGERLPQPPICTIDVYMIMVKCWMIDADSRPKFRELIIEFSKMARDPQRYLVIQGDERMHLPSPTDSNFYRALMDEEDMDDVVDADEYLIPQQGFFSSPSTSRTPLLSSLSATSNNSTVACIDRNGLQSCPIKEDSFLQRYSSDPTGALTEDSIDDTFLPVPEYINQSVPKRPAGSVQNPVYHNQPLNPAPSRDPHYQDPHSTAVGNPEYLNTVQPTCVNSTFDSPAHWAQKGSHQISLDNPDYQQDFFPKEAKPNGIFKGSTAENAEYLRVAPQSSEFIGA

The inhibition is the drop in the measured response relative to a control, in per cent. Regarding `CN(C(=O)CN1CCOCC1)c1ccc2sc3c(-c4cccc5c(=O)cc(N6CC7CCC(C6)O7)oc45)cccc3c2c1` [NU5455], the inhibition at 1 µM is -14.1%.
